Measured values as given in patent US7109329B2, “Neurologically active compounds and compounds with multiple activities” (priority 1988, dated 2006).

Experiments:
[1] = Anesthesia in rats judged by reflexes and wakefulness; conditions: for appearance of ears and digits of anesthetized animals / survival at the given doses / reflexes tested (as in Examples 48–53) / anesthesia judged by reflexes (patellar, urethro-anal, startle, corneal etc.) after 30 minutes: I.P.; for appearance of ears and digits of anesthetized animals / reflexes tested (as in Examples 48–53): guanabenz acetate 12 mg/kg; for appearance of ears and digits of anesthetized animals / survival at the given doses / reflexes tested (as in Examples 48–53): pentabarbital 25 mg/kg, ketamine 80 mg/kg; for reflexes tested (as in Examples 48–53): room temperature 19.4° C.; for anesthesia judged by reflexes (patellar, urethro-anal, startle, corneal etc.) after 30 minutes: room temperature 21° C., G 12 mg/kg, D 6 mg/kg or combination
[2] = for mean core temperature one hour after injection: room temperature 19.4° C., guanabenz acetate 12 mg/kg, pentabarbital 25 mg/kg, ketamine 80 mg/kg; for mean core temperature one hour after injection / core temperature twenty minutes after injection: I.P.; for core temperature allowed to fall to: 4 mg intraperitoneally, ambient 21° C., before transfer to 42° C. room (guanabenz: after about 15 minutes); for core temperature twenty minutes after injection: room temperature 21° C., G 12 mg/kg, D 6 mg/kg or combination
Protocol: Room temperature was 21.5° C.
The core temperatures of the rats were allowed to fall to approximately 30° C., after about 15 minutes. At that time, the rats were placed in a temperature controlled room maintained at 42° C., together with 2 control rats treated only with the dextrose solution.
The core temperatures of the rats were allowed to fall to approximately 30° C. At that time, the rats were placed in a temperature controlled room maintained at 42° C., together with two control rats treated only with the dextrose solution.

[3] = Reversal of guanabenz-induced anesthesia and hypothermia by antagonists; assay type: in vivo, rat
Protocol: The effect can also be partially reversed, or reversed in stages, if desired, by administering several smaller aliquots of the antagonist.
Room temperature was 21.5° C. […] The control rats, injected only with the carrier dextrose solution, maintained a relatively constant temperature during the entire test period under identical conditions of the test.

[4] = Intravenous anesthesia of a 70 kg mammal; assay type: in vivo; conditions: 70 kg mammal, 20 mg aminophylline intravenous over five minutes
Protocol: Thereafter, an intravenous injection containing 20 mg of aminophylline is administered over a period of five minutes. The large mammal is fully awakened within about 20 minutes, appearing alert and refreshed.
The period of time required to fully reverse the anesthesia can be increased or decreased by proportionally changing the amount of the antagonist. After metabolism of guanabenz, the mammal will spontaneously awaken, within about three to six hours after the I.V. drip is discontinued.

[5] = Electrical tail stimulation, vocalization threshold (anesthesia) in rats; assay type: in vivo, rat; conditions: guanabenz-anesthetized rats, 40 mgs. aminophylline
Protocol: A fifth rat was treated with merely an equal amount of the dextrose solution without guanabenz acetate. The rats were subjected to an electrical tail stimulation, by electrodes attached to their tails, to determine the point of positive (threshold) vocalization.
The normal vocalization threshold, and the point at which the control rat vocalized was approximately 7 volts. […] To bring the rats out of anesthesia, the rats were then injected with 40 mgs. of aminophylline, also in 1 ml of a 5% aqueous dextrose solution. […] The normal threshold for vocalization was reestablished, as there was no vocalization at 6 volts following recovery from anesthesia.
The rats were maintained under anaesthesia for a period of 50 minutes before injection of the aminophylline.

[6] = Formation of scar tissue at the trauma site; assay type: in vivo
From the text: It is believed that these mixed agonists interfere with triple helix formation in the synthesis of collagen protein, thus preventing or reducing the formation of hard scar tissue at the trauma site.
The purpose of liquid nitrogen is to reduce the structural integrity of the collagen laden, glial scar tissue, by freezing and defrosting. Collagenase then initiates a debridgement of the scar without attacking the nervous and osseous tissue. If required, streptokinase, or alteplase, both plasminogen activators can also be used to bring about a complete debridgement. In addition to 3-amino-propionitrile (a latherogen), 5-fluorodeoxyuridine and dehydroproline can be used to arrest further glial and fibroblastic invasion of the scar region, respectively.

[7] = Core temperature and behaviour of treated rats in a room at 42° C.; assay type: in vivo, rat; conditions: 4 mg intraperitoneally; for core temperature in the 42° C. room: placed at core temperature about 30° C.
[8] = guanabenz-treated rats (4 mg I.P.), Yohimbine 10 mg I.P.
[9] = 4 mg I.P., room temperature 21.5° C.

SMILES: CNC1(c2ccccc2Cl)CCCCC1=O (centres unmarked) [ketamine]
- appearance of ears and digits of anesthetized animals [1]: semi-cyanotic
- survival at the given doses [1]: did not survive
- reflexes tested (as in Examples 48–53) [1]: disappeared
- mean core temperature one hour after injection [2]: 34.5 °C

SMILES: Cn1c(=O)c2[nH]cnc2n(C)c1=O [aminophylline]
- effect on guanabenz-induced anesthesia [3, 8]: caused them to awaken
- effect on guanabenz-induced hypothermia (body temperature) [3, 8]: practically no effect on body temperature
- effect of injection on melazine-treated rats ([3]; three melazine-treated rats): no discernible effect
- time until fully awakened from guanabenz anesthesia [4]: ≤ 20 min
- voltage at which vocalization was present ([5]; by 8 minutes after injection): 7 volts
- voltage at which vocalization returned ([5]; within 6 minutes after injection): 12 volts

SMILES: Clc1cccc(Cl)c1N=C1NCCN1 [clonidine]
- effect on formation of the scar [6]: interfere with formation of the scar

SMILES: N=C(N)N/N=C/c1c(Cl)cccc1Cl [guanabenz acetate]
- reflexes tested (as in Examples 48–53) [1]: disappeared
- anesthesia judged by reflexes (patellar, urethro-anal, startle, corneal etc.) after 30 minutes [1]: profound anesthesia
- core temperature allowed to fall to [2]: approximately 30 °C
- mean core temperature one hour after injection [2]: 24.3 °C
- core temperature twenty minutes after injection [2]: about 31 °C
- state of treated rats in the 42° C. room [7]: remained under anesthesia
- core temperature in the 42° C. room [7]: 30 °C

SMILES: N=C(N)NN [Aminoguanidine]
- effect on formation of the scar [6]: interfere with formation of the scar

SMILES: CCCC(C)C1(CC)C(=O)NC(=O)NC1=O (centres unmarked) [pentabarbital]
- appearance of ears and digits of anesthetized animals [1]: semi-cyanotic
- survival at the given doses [1]: did not survive
- reflexes tested (as in Examples 48–53) [1]: disappeared
- mean core temperature one hour after injection [2]: 29.3 °C

SMILES: Clc1cccc(Cl)c1C=Nc1nc(N=Cc2c(Cl)cccc2Cl)nc(N=Cc2c(Cl)cccc2Cl)n1 [Compound 18, 2,4,6-Tris (2,6-dichlorobenzylideneamino)-1,3,5-s-Triazine]
- core temperature allowed to fall to [2]: approximately 30 °C
- state of treated rats in the 42° C. room [7]: remained calm, but active
- core temperature in the 42° C. room [7]: 30 °C

SMILES: CN1C(=O)CN=C(c2ccccc2)c2cc(Cl)ccc21 [diazepam]
- anesthesia judged by reflexes (patellar, urethro-anal, startle, corneal etc.) after 30 minutes [1]: all such reflexes were present
- core temperature twenty minutes after injection [2]: no change

SMILES: COc1cc(C=NNc2ncc[nH]2)cc(OC)c1OC [Compound 13, Melazine]
- anesthetic state of the treated rats [1, 9]: remained awake
- mean intraperitoneal temperature [2, 9]: 30.2 °C
- temperatures of the liver and the kidneys [2, 9]: ~32.7 °C
- core temperature (colonic measurement) after drop ([2]; eight rats each, 4 mg I.P. in 5% dextrose, room temperature 21.5° C., normal value 36.5° C.): 21.5 °C
